Measured values as given in article PMC6245281, “Cytotoxic Steroidal Saponins from the Flowers of Allium leucanthum” (Molecules, 2008).

What was measured:
Format in all cases: cell-based
[1] = tested on: lung carcinoma (A549) cell line; experiment: Cytotoxicity assay (resazurin reduction test), A549; conditions: Homo sapiens, A549 cells, 48 h incubation, read-out: IC50 (μM ± SD) A549
Experimental: (§1) Lung carcinoma (A549), colon adenocarcinoma (DLD-1) and normal skin fibroblast (WS1) human cell lines were purchased from the American Type Culture Collection (ATCC). All cell lines were cultured in minimum essential medium containing Earle’s salts and L-glutamine (Mediatech Cellgro, VA), to which 10% fetal bovine serum (Hyclone), vitamins (1X), penicillin (100 I.U./mL), streptomycin (100 μg/ml), essential amino acids (1X) and sodium pyruvate (1X) (Mediatech Cellgro, VA) were added. Cells were kept at 37°C in a humidified environment containing 5% CO2.
(§2) Exponentially growing cells were plated at a density of 5 × 10^3 cells per well in 96-well microplates (Costar, Corning inc.) in 100 µl of culture medium and were allowed to adhere for 16 hours before treatment. Then, 100 µl of increasing concentrations of extract or pure compounds dissolved in culture medium and DMSO (Sigma-Aldrich) were added. The final concentration of solvent in the culture medium was maintained at 0.25% (v/v) to avoid solvent toxicity. Cells were incubated for 48 h in the absence or in the presence of extract. Cytotoxicity was assessed using the resazurin reduction test as described by O’Brien) Fluorescence was measured on an automated 96-well Fluoroskan Ascent Fl plate reader (Labsystems) using an excitation wavelength of 530 nm and an emission wavelength of 590 nm. Cytotoxicity was expressed as the concentration of extract or compound inhibiting cell growth by 50% (IC50).

[2] = tested on: colon adenocarcinoma (DLD-1) cell line; experiment: Cytotoxicity assay (resazurin reduction test), DLD-1; conditions: Homo sapiens, DLD-1 cells, 48 h incubation, read-out: IC50 (μM ± SD) DLD-1
Experimental: as §1, §2

[3] = tested on: normal skin fibroblast (WS1) cell line; experiment: Cytotoxicity assay (resazurin reduction test), WS1; conditions: Homo sapiens, WS1 healthy cells, 48 h incubation, read-out: IC50 (μM ± SD) WS1
Experimental: as §1, §2

For `COc1cc([C@@H]2c3cc4c(cc3[C@@H](O[C@@H]3O[C@@H]5CO[C@@H](C)O[C@H]5[C@H](O)[C@H]3O)[C@H]3COC(=O)[C@H]23)OCO4)cc(OC)c1O` [Etoposide, reference compound], the IC50 [1] was 1.1 ± 0.1 µM and the IC50 [2] was 4.8 ± 0.8 µM.
`CC1CCC2(OC1)OC1CC3C4CC(O)C5CC(OC6OC(CO)C(OC7OC(CO)C(O)C(OC8OC(CO)C(O)C(O)C8O)C7OC7OC(CO)C(O)C(O)C7O)C(O)C6O)C(O)CC5(C)C4CCC3(C)C1C2C` (centres unmarked) [Yayoisaponin C (1), yayoisaponin C] was tested, and the IC50 [3] was 3 ± 0.2 µM, the IC50 [1] was 3.7 ± 0.7 µM and the IC50 [2] was 5.6 ± 0.2 µM.
In the case of `C[C@@H]1CC[C@@]2(OC1)O[C@H]1C[C@H]3[C@@H]4C[C@@H](O)[C@H]5C[C@@H](O[C@@H]6O[C@H](CO)[C@H](O[C@@H]7O[C@H](CO)[C@@H](O)[C@H](O[C@@H]8O[C@H](CO)[C@@H](O)[C@H](O)[C@H]8O)[C@H]7O[C@@H]7O[C@H](CO)[C@@H](O)[C@H](O[C@@H]8O[C@H](CO)[C@@H](O)[C@H](O)[C@H]8O)[C@H]7O)[C@H](O)[C@H]6O)CC[C@]5(C)[C@H]4CC[C@]3(C)[C@H]1[C@@H]2C` [Compound 7, (25R)-5α-spirostane-3β,6β-diol 3-O-β-D-glucopyranosyl-(1→3)-β-D-glucopyranosyl-(1→2)-[β-D-glucopyranosyl-(1→3)]-β-D-glucopyranosyl-(1→4)-β-D-galactopyranoside], the IC50 [3] is reported as 7.7 ± 0.2 µM, the IC50 [1] is reported as 7.8 ± 0.4 µM and the IC50 [2] is reported as 8.9 ± 0.2 µM.
`CC1CCC2(OC1)OC1CC3C4CC(O)C5CC(OC6OC(CO)C(OC7OC(CO)C(O)C(OC8OCC(O)C(O)C8O)C7OC7OC(CO)C(O)C(O)C7O)C(O)C6O)C(O)CC5(C)C4CCC3(C)C1C2C` (centres unmarked) [Aginoside (3), aginoside] was tested, and the IC50 [3] was 3.6 ± 0.2 µM, the IC50 [1] was 5.8 ± 0.9 µM and the IC50 [2] was 7.9 ± 0.5 µM.
With `CC1CCC2(OC1)OC1CC3C4CC(O)C5CC(OC6OC(CO)C(OC7OC(CO)C(O)C(OC8OC(CO)C(O)C(O)C8O)C7OC7OC(CO)C(O)C(O)C7O)C(O)C6O)CCC5(C)C4CCC3(C)C1C2C` (centres unmarked) [Eruboside B (2), eruboside B] the IC50 [3] was 3.6 ± 0.2 µM, the IC50 [1] was 5.3 ± 0.5 µM and the IC50 [2] was 8.2 ± 0.4 µM.
With `C[C@@H]1CC[C@@]2(OC1)O[C@H]1C[C@H]3[C@@H]4C[C@@H](O)[C@H]5C[C@@H](O[C@@H]6O[C@H](CO)[C@H](O[C@@H]7O[C@H](CO)[C@@H](O)[C@H](O)[C@H]7O[C@@H]7O[C@H](CO)[C@@H](O)[C@H](O)[C@H]7O)[C@H](O)[C@H]6O)[C@H](O)C[C@]5(C)[C@H]4CC[C@]3(C)[C@H]1[C@@H]2C` [Compound 6, (25R)-5α-spirostane-2α,3β,6β-triol 3-O-β-D-glucopyranosyl-(1→2)-β-D-glucopyranosyl-(1→4)-β-D-galactopyranoside] the IC50 [3] was 14.5 ± 0.5 µM, the IC50 [1] was 22 ± 2 µM and the IC50 [2] was 22 ± 2 µM.
For `C[C@@H]1CC[C@@]2(OC1)O[C@H]1C[C@H]3[C@@H]4C[C@@H](O)[C@H]5C[C@@H](O[C@@H]6O[C@H](CO)[C@H](O[C@@H]7O[C@H](CO)[C@@H](O)[C@H](O[C@@H]8O[C@H](CO)[C@@H](O)[C@H](O)[C@H]8O)[C@H]7O[C@@H]7O[C@H](CO)[C@@H](O)[C@H](O[C@@H]8O[C@H](CO)[C@@H](O)[C@H](O)[C@H]8O)[C@H]7O)[C@H](O)[C@H]6O)[C@H](O)C[C@]5(C)[C@H]4CC[C@]3(C)[C@H]1[C@@H]2C` [Leucospiroside A (5), (25R)-5α-spirostane-2α,3β,6β-triol 3-O-β-glucopyranosyl-(1→3)-β-glucopyranosyl-(1→2)-[β-glucopyranosyl-(1→3)]-β-glucopyranosyl-(1→4)-β-galactopyranoside], the IC50 [3] was 4.55 ± 0.07 µM, the IC50 [1] was 5 ± 0.1 µM and the IC50 [2] was 7.2 ± 0.1 µM.
With `O=c1[nH]cc(F)c(=O)[nH]1` [5-fluorouracil, reference compound] the IC50 [3] was 20 ± 2 µM, the IC50 [1] was 48 ± 18 µM and the IC50 [2] was 11 ± 2 µM.
Compound `C[C@@H]1CC[C@@]2(OC1)O[C@H]1C[C@H]3[C@@H]4C[C@@H](O)[C@H]5C[C@@H](O[C@@H]6O[C@H](CO)[C@H](O[C@@H]7O[C@H](CO)[C@@H](O)[C@H](O[C@@H]8OC[C@@H](O)[C@H](O)[C@H]8O)[C@H]7O[C@@H]7O[C@H](CO)[C@@H](O)[C@H](O)[C@H]7O)[C@H](O)[C@H]6O)CC[C@]5(C)[C@H]4CC[C@]3(C)[C@H]1[C@@H]2C` [Compound 4, (25R)-5α-spirostane-3β,6β-diol 3-O-β-D-glucopyranosyl-(1→2)-[β-D-xylopyranosyl-(1→3)]-β-D-glucopyranosyl-(1→4)-β-D-galactopyranoside] has an IC50 [3] of 3.1 ± 0.1 µM, an IC50 [1] of 9 ± 1 µM and an IC50 [2] of 13 ± 1 µM.
